# Results: patent publication US6589962B1, “Alpha-hydroxy-gamma-[[(carbocyclic-or heterocyclic-substituted)amino]carbonyl]alkanamide derivatives and uses thereof” (priority 1999, dated 2003)
# System: HIV-1 viral constructs Q60, K-60, and V-18
# Assay: Cell spread assay (HIV-1 p24 accumulation in MT-4 T-lymphoid cells), mutant viral constructs
# Type: cell-based
# Conditions: one range stated for the three mutant viral constructs together; MT-4 cells, 4 days postinfection
# Method: Inhibition of the spread of HIV in cell culture was measured according to Nunberg et al., J. Virol. […] In this assay, MT-4 T-lymphoid cells were infected with HIV-1 (wild-type, unless otherwise indicated) by using a predetermined inoculum, and cultures were incubated for 24 h. At this time, ≦1% of the cells were positive by indirect immunofluorescence. Cells were then extensively washed and distributed into 96-well culture dishes. Serial twofold dilutions of inhibitor were added to the wells, and cultures were continued for 3 additional days. At 4 days postinfection, 100% of the cells in control cultures were infected. HIV-1 p24 accumulation was directly correlated with virus spread. The cell culture inhibitory concentration was defined as the inhibitor concentration in nanomoles/liter which reduced the spread of infection by at least 95%, or CIC95.
structure (smiles),measurement,value
"CC(C)(C)NC(=O)[C@@H]1CN(Cc2cccnc2)CCN1C[C@@H](O)C[C@@H](Cc1ccccc1)C(=O)N[C@H]1c2ccccc2C[C@H]1O [indinavir, N-(2(R)-hydroxy-1(S)-indanyl)-2(R)-phenylmethyl-4-(S)-hydroxy-5-(1-(4-(3-pyridyl-methyl)-2(S)-N′-(t-butylcarboxamido)-piperazinyl))-pentaneamide]","CIC95 against the viral constructs Q60, K-60, and V-18",greater than 1000 nM
